Measured values from patent publication US20130259884A1, “PEPTIDES” ([…] SL, priority 2010, published 2013).
Where a SMILES comes first, the peptide text is derived from it.

Test: Water solubility of peptides when preparing stock solutions
Type: physicochemical
Details: stock solution in sterile distilled water or 100% DMSO; read-out: solubility of peptide (water soluble or water insoluble, dissolved in DMSO)
Procedure: For challenge, peptides were administered as follows: • Individual peptides (soluble). Individual water soluble peptides were dissolved as 10, 5 or 2.5 mg/ml stock solutions in sterile distilled water. Before use, each peptide was diluted in water to 2 mg/ml and 10 μl of this 2 mg/ml mix was added to 990 μl of media. Then 100 μl of this peptide/media mix was added to 100 μl of media containing 350,000 PBMC in an ELISPOT anti-IL-4 coated cell culture plate well for a final peptide concentration of 10 μg/ml. Identically diluted media only was added to the cells and used for the no peptide media control wells (media only). • Individual peptides (DMSO). Individual water insoluble peptides were dissolved in 100% DMSO to a stock concentration of 50 mg/ml. Before use each peptide was diluted in water to 2 mg/ml and then 10 μl of the 2 mg/ml mix was added to 990 μl of cell-culture media. Then 100 μl of this peptide/media mix was added to 100 μl of media containing 350,000 PBMC in an ELISPOT anti-IL-4 coated cell culture plate well for a final peptide concentration of 10 μg/ml. Identically diluted media only was added to the cells and used for the no peptide media control wells (media only). • A combination preparation containing Alt a 1 soluble peptides (33.2, 34.3, 35.4, 35.5, 37.3.1, 37.4.1, L6-5.01, L10-1.01, L10-2.01, L10-3), called Alt a 1 Sol. Each peptide was diluted from water stock to 2 mg/ml in sterile distilled water. Then 10 μl of each peptide required for the combined preparation was mixed and brought up to 1 ml in media. Then 100 μl of this peptide/media mix was added to 100 μl of media containing 350,000 PBMC in an ELISPOT anti-IL-4 coated cell culture plate well for a final concentration of each peptide of 10 μg/ml. Identically diluted media only was used for the no peptide control wells (media only). • A combination preparation containing Alt a 1 DMSO peptides (32.2.1, 38.2.1, 35.2, 35.3, L6-2, L6-3, L6-4, 38.3, 37.2), called Alt a 1 DMSO. Each peptide was diluted from DMSO stock to 2 mg/ml in sterile distilled water. Then 10 μl of each peptide required for the combined preparation was mixed and brought up to 1 ml in media. Then 100 μl of this peptide/media mix is added to 100 μl of media containing 350,000 PBMC in an ELISPOT anti-IL-4 coated cell culture plate well for a final concentration of each peptide of 10 μg/ml. Identically diluted media only was used for the no peptide control wells (media only). • A combination preparation containing non-Alt a 1 soluble peptides (40.2, 41.2, 43.2, 44.2, 46.2, 47.2.1, 56.2, 57.2.1, 60.2, 62.2.1, 67.2, 71.3), called Alt a Other Sol. Each peptide was diluted from water stock to 2 mg/ml in sterile distilled water. Then 10 μl of each peptide required for the combined preparation was mixed and brought up to 1 ml in media, Then 100 μl of this peptide/media mix was added to 100 μl of media containing 350,000 PBMC in an ELISPOT anti-IL-4 coated cell culture plate well for a final concentration of each peptide at 10 μg/ml. Identically diluted media only was used for the no peptide control wells (media only). • A combination preparation containing non-Alt a 1 DMSO peptides (39.2, 42.2, 45.2, 48.2.1, 50.2, 51.2.1, 61.2.1, 66.3.1, 68.2.1, 70.2, 71.2, 72.2), called Alt a Other DMSO. Each peptide was diluted from DMSO stock to 2 mg/ml in sterile distilled water. Then 10 ul of each peptide required for the combined preparation was mixed and brought up to 1 ml in media, Then 100 μl of this peptide/media mix was added to 100 μl of media containing 350,000 PBMC in an ELISPOT anti-IL-4 coated cell culture plate well for a final concentration of each peptide at 10 μg/ml. Identically diluted media only was used for the no peptide control wells (media only).

CC(C)C[C@H](NC(=O)[C@H](C)NC(=O)[C@H](CCCNC(=N)N)NC(=O)[C@H](C)N)C(=O)N[C@@H](CCCNC(=N)N)C(=O)N[C@@H](CCCNC(=N)N)C(=O)N[C@@H](CC(C)C)C(=O)N[C@@H](CCCNC(=N)N)C(=O)N[C@H](C(=O)N[C@@H](C)C(=O)N[C@@H](CS)C(=O)N[C@@H](CCC(=O)O)C(=O)N[C@@H](CCCNC(=N)N)C(=O)N[C@@H](C)C(=O)N[C@@H](CCCCN)C(=O)O)[C@@H](C)O [Peptide 41.2, ARALRRLRTACERAK] (H-ARALRRLRTACERAK-OH; N-terminus and C-terminus assumed)
solubility: > 2500 µg/mL

CC[C@H](C)[C@H](NC(=O)[C@H](CCC(=O)O)NC(=O)[C@H](CC(=O)O)NC(=O)[C@@H]1CCCN1)C(=O)N[C@@H](CCC(N)=O)C(=O)NCC(=O)N[C@@H](Cc1ccccc1)C(=O)N1CCC[C@H]1C(=O)N[C@H](C(=O)N[C@H](C(=O)N[C@@H](CCCCN)C(=O)N[C@@H](CC(C)C)C(=O)N[C@@H](Cc1ccccc1)C(=O)N1CCC[C@H]1C(=O)N[C@@H](C)C(=O)O)[C@@H](C)CC)[C@@H](C)O [Peptide 43.2, PDEIQGFPTIKLFPA] (H-PDEIQGFPTIKLFPA-OH)
solubility: > 2500 µg/mL

CC[C@H](C)[C@H](NC(=O)[C@H](CCC(N)=O)NC(=O)CNC(=O)[C@H](CO)NC(=O)[C@H](CCCNC(=N)N)NC(=O)[C@H](CC(C)C)NC(=O)CNC(=O)[C@@H](NC(=O)[C@@H](NC(=O)[C@@H](NC(=O)[C@H](CC(=O)O)NC(=O)[C@H](C)N)[C@@H](C)CC)C(C)C)C(C)C)C(=O)N[C@@H](CCCCN)C(=O)N[C@H](C(=O)NCC(=O)O)[C@@H](C)O [Peptide 44.2, ADIVVGLRSGQIKTG] (H-ADIVVGLRSGQIKTG-OH)
solubility: > 2500 µg/mL

CC(C)C[C@H](NC(=O)[C@@H](NC(=O)CNC(=O)[C@@H](NC(=O)[C@H](CO)NC(=O)[C@@H](NC(=O)[C@H](Cc1ccccc1)NC(=O)[C@@H](NC(=O)CNC(=O)[C@H](C)N)C(C)C)C(C)C)[C@@H](C)O)[C@@H](C)O)C(=O)NCC(=O)NCC(=O)NCC(=O)N[C@@H](CCC(N)=O)C(=O)N[C@@H](CCC(=O)O)C(=O)O [Peptide 45.2, AGVFVSTGTLGGGQE] (H-AGVFVSTGTLGGGQE-OH)
solubility: < 2500 µg/mL

CC[C@H](C)[C@H](NC(=O)[C@@H](NC(=O)[C@@H](NC(=O)[C@H](CCCCN)NC(=O)CNC(=O)[C@@H](N)CCCCN)C(C)C)C(C)C)C(=O)N[C@H](C(=O)N[C@H](C(=O)NCC(=O)N[C@@H](C)C(=O)N[C@@H](CO)C(=O)NCC(=O)N1CCC[C@H]1C(=O)N[C@H](C(=O)NCC(=O)O)[C@@H](C)O)[C@@H](C)O)C(C)C [Peptide 46.2, KGKVVIVTGASGPTG] (H-KGKVVIVTGASGPTG-OH)
solubility: > 2500 µg/mL

CC[C@H](C)[C@H](NC(=O)[C@H](Cc1c[nH]cn1)NC(=O)CNC(=O)[C@H](CO)NC(=O)[C@H](CC(C)C)NC(=O)[C@H](CO)NC(=O)[C@H](CO)NC(=O)[C@@H](NC(=O)[C@@H](NC(=O)[C@@H](NC(=O)[C@H](CC(C)C)NC(=O)[C@H](CO)NC(=O)CNC(=O)[C@@H](N)[C@@H](C)O)C(C)C)[C@@H](C)CC)[C@@H](C)O)C(=O)N[C@@H](C)C(=O)O [Peptide 47.2.1, TGSLVITSSLSGHIA] (H-TGSLVITSSLSGHIA-OH)
solubility: > 2500 µg/mL

CC[C@H](C)[C@H](NC(=O)[C@H](C)NC(=O)[C@H](Cc1c[nH]c2ccccc12)NC(=O)[C@@H](N)C(C)C)C(=O)N[C@H](C(=O)N[C@@H](CC(C)C)C(=O)N[C@@H](CC(C)C)C(=O)N[C@@H](CO)C(=O)N[C@@H](CC(C)C)C(=O)N[C@H](C(=O)N[C@@H](CCC(N)=O)C(=O)N[C@@H](CC(C)C)C(=O)N[C@H](C(=O)N[C@H](C(=O)N1CCC[C@H]1C(=O)O)[C@@H](C)O)[C@@H](C)O)C(C)C)C(C)C [Peptide 48.2.1, VWAIVLLSLVQLTTP] (H-VWAIVLLSLVQLTTP-OH)
solubility: < 2500 µg/mL
